Results on 23 molecules are retold here after patent US11578061B2, “Inhibitors of LRRK2 kinase” (Halia Therapeutics, Inc., priority 2021, dated 2023).

Structures are written as SMILES.

The target in the assay is recombinant human LRRK2 (catalytic domain only [amino acids 970-2527], GST-tagged) (Homo sapiens (Human), UniProt Q5S007). Description: LRRK2 Enzymatic Assay. It counts as biochemical. Conditions: LRRKtide substrate, [32P]-ATP. The procedure: LRRKtide substrate (peptide sequence RLGRDKYKTLRQIRQ, derived from human ezrin [amino acids 561-573], moesin [amino acids 539-553] and radixin [amino acids 558-570], obtained from SignalChem, catalogue #L10-58, reconstituted in 20 mM Tris-HCl at pH 7.5 to a final concentration of 1 mg/mL, assay concentration 20 μM) and recombinant human LRRK2 (catalytic domain only [amino acids 970-2527], GST-tagged, expressed in insect cells, obtained from ThermoFisher Scientific, catalogue #PV4874, 0.35 mg/mL, assay concentration 30 nM) were mixed in assay buffer (20 mM Hepes pH 7.5, 10 mM MgCl2, 1 mM EGTA, 0.02% Brij35, 0.02 mg/ml BSA, 0.1 mM Na3VO4, 2 mM DTT, 1% DMSO). Compounds of interest (in DMSO, serial 3-fold dilution from 10 μM to 0.5 nM) or control (1% DMSO) were dispensed into the kinase reaction mixture by Acoustic technology (Echo550; nanoliter range). After incubation at room temperature for 20 minutes, the kinase reaction was initiated by addition of [^32P]-ATP (Specific activity 10 μCi/μl) and the mixture was incubated at room temperature for 2 hours. The reaction was then stopped by spotting the reaction mixture on strips of phosphocellulose P81 paper. Following washing, the radioactivity of the P81 paper was measured and kinase activity data were expressed as the percent remaining kinase activity in test samples compared to vehicle (dimethyl sulfoxide) reactions. IC50 values and curve fits were obtained using Prism (GraphPad Software).
Chain of recombinant human LRRK2 (catalytic domain only [amino acids 970-2527], GST-tagged) (Q5S007 970-2527): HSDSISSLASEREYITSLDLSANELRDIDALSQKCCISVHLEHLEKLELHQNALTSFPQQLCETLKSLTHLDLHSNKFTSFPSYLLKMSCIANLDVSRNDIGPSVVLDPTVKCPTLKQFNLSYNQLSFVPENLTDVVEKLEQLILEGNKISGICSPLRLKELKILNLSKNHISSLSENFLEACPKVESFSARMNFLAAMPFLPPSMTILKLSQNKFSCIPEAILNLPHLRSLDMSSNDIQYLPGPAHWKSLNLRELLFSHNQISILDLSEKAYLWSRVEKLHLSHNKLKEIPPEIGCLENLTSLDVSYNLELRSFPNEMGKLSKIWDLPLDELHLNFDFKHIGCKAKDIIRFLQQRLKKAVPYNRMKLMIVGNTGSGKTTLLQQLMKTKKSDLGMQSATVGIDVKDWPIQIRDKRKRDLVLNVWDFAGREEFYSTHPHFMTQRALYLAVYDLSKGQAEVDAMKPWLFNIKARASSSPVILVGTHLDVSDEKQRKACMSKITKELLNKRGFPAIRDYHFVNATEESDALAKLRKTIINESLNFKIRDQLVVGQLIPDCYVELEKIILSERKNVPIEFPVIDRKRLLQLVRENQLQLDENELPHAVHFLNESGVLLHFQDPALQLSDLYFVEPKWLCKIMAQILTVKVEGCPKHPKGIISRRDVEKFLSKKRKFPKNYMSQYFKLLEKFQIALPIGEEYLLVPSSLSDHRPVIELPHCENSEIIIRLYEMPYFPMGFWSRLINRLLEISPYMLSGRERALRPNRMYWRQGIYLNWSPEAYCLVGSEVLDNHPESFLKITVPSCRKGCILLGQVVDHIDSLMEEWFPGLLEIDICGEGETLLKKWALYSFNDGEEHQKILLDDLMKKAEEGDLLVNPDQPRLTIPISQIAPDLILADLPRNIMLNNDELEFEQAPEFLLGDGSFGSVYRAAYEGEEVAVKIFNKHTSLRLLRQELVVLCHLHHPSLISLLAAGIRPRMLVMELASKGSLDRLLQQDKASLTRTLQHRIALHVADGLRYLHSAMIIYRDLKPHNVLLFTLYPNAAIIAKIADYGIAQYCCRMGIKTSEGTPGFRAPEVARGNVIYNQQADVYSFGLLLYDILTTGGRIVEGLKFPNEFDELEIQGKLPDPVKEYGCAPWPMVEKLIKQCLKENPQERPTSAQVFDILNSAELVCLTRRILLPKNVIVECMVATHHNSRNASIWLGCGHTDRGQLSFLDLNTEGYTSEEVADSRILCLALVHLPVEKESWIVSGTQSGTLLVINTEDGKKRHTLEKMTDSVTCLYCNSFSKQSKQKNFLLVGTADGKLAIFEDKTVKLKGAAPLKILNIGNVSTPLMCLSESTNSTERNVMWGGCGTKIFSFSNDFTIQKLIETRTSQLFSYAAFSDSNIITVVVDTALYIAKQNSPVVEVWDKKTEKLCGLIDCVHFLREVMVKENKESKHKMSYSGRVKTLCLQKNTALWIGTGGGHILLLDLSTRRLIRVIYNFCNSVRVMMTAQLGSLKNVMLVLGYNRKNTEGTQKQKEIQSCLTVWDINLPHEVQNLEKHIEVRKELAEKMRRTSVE

In the case of `Cc1nn(C(C)(C)C#N)cc1Nc1ncc(F)c(OCC2CCC(O)C2)n1` (centres unmarked) [Example 127, 2-(4-((5-fluoro-4-((3-hydroxycyclopentyl)methoxy)pyrimidin-2-yl)amino)-3-methyl-1H-pyrazol-1-yl)-2-methylpropanenitrile], the IC50 is below 50 nM.

With `Fc1cnc(Nc2ccc(N3CCOCC3)cc2)nc1OCC1CCNCC1(F)F` (centres unmarked) [Example 29, 4-((3,3-difluoropiperidin-4-yl)methoxy)-5-fluoro-N-(4-morpholinophenyl) pyrimidin-2-amine], the IC50 is below 50 nM.

In the case of `O=S1(=O)CCC(COc2nc(Nc3ccc(N4CCOCC4)cc3)ncc2F)CC1` [Example 287, 4-(((5-fluoro-2-((4-morpholinophenyl)amino)pyrimidin-4-yl)oxy)methyl)tetrahydro-2H-thiopyran 1,1-dioxide], the IC50 is above 400 nM.

As to `CC(=O)N[C@H]1CC[C@H](COc2ccnc(Nc3cn(C4CC(C#N)C4)nc3C)n2)CC1` (stereo partly drawn) [Example 75, N-((1R,4R)-4-(((2-((1-(3-cyanocyclobutyl)-3-methyl-1H-pyrazol-4-yl)amino)pyrimidin-4-yl)oxy)methyl)cyclo-hexyl)acetamide], the IC50 was above 400 nM.

As for `CC(=O)N[C@H]1C[C@H](COc2nc(Nc3ccc(N4CCOCC4)cc3)ncc2F)C1` [Example 92, N-((1R,3R)-3-(((5-fluoro-2-((4-morpholinophenyl)amino)pyrimidin-4-yl)oxy)methyl)cyclo-butyl)acetamide], the IC50 lay within 200 to 400 nM.

Consider `OCCn1cc(Nc2ncc(F)c(OC[C@H]3CC[C@H](O)CC3)n2)cn1` [Example 225, (1R,4R)-4-(((5-fluoro-2-((1-(2-hydroxyethyl)-1H-pyrazol-4-yl)amino)pyrimidin-4-yl)oxy)methyl)cyclohexan-1-ol], for which the IC50 is below 50 nM.

On to `Cc1c(Nc2ncc(F)c(OC[C@H]3CC[C@H](O)CC3)n2)cnn1C(C)(C)C#N` [Example 234, 2-(4-((5-fluoro-4-(((1R,4R)-4-hydroxycyclohexyl)methoxy)pyrimidin-2-yl)amino)-5-methyl-1H-pyrazol-1-yl)-2-methylpropanenitrile], for which the IC50 is below 50 nM.

Regarding `CC(=O)N[C@H]1CC[C@H](COc2nc(Nc3cnn(C4CCOCC4)c3Cl)ncc2F)CC1` [Example 206, N-((1R,4R)-4-(((2-((5-chloro-1-(tetrahydro-2H-pyran-4-yl)-1H-pyrazol-4-yl)amino)-5-fluoropyrimidin-4-yl)oxy)methyl)cyclo-hexyl)acetamide], the IC50 is below 50 nM.

Regarding `CC(=O)N[C@H]1CC[C@H](COc2ccnc(Nc3ccc(N4CCOCC4)cc3)n2)CC1` [Example 72, N-((1R,4R)-4-(((2-((4-morpholinophenyl)amino)pyrimidin-4-yl)oxy)methyl)cyclo-hexyl)acetamide], the IC50 lay in the range of 50 to 200 nM.

Regarding `CN[C@H]1CC[C@H](COc2nc(Nc3cn(C4CC(C#N)C4)nc3C)ncc2Cl)CC1` (stereo partly drawn) [Example 40, 3-(4-((5-chloro-4-(((1R,4R)-4-(methylamino)cyclo-hexyl)methoxy)py-rimidin-2-yl)amino)-3-methyl-1H-pyrazol-1-yl)cyclobutane-1-carbonitrile], the IC50 is below 50 nM.

Take `Cc1nn(C(C)(C)C#N)cc1Nc1ncc(F)c(OCC23CCC(O)(CC2)CC3)n1` [Example 257, 2-(4-((5-fluoro-4-((4-hydroxybicyclo[2.2.2]octan-1-yl)methoxy)pyrimidin-2-yl)amino)-3-methyl-1H-pyrazol-1-yl)-2-methylpropanenitrile]: the IC50 lay within 50 to 200 nM.

Turning to `CC(=O)N[C@H]1CC[C@H](COc2nc(Nc3cnn(CCO)c3Cl)ncc2F)CC1` [Example 204, N-((1R,4R)-4-(((2-((5-chloro-1-(2-hydroxyethyl)-1H-pyrazol-4-yl)amino)-5-fluoropyrimidin-4-yl)oxy)methyl)cyclo-hexyl)acetamide], the IC50 is below 50 nM.

On to `CCO[C@H]1CC[C@@H](COc2nc(Nc3cn(C(C)(C)C#N)nc3C)ncc2F)CC1` [Example 277, 2-(4-((4-(((1s,4s)-4-ethoxycyclohexyl)methoxy)-5-fluoropyrimidin-2-yl)amino)-3-methyl-1H-pyrazol-1-yl)-2-methylpropanenitrile], for which the IC50 was below 50 nM.

With `CC(=O)N[C@H]1CC[C@H](COc2nc(Nc3ccc(N4CCOCC4)cc3)ncc2Cl)CC1` [Example 80, N-((1R,4R)-4-(((5-chloro-2-((4-morpholinophenyl)amino)pyrimidin-4-yl)oxy)methyl)cyclo-hexyl)acetamide], the IC50 was below 50 nM.

As for `FC(F)(F)CN1CCC(COc2nc(Nc3ccc(N4CCOCC4)cc3)ncc2Cl)CC1` [Example 114, 5-chloro-N-(4-morpholino-phenyl)-4-((1-(2,2,2-trifluoroethyl)piperidin-4-yl)methoxy) pyrimidin-2-amine], the IC50 was above 400 nM.

In the case of `O=C(N[C@H]1CC[C@H](COc2nc(Nc3ccc(N4CCOCC4)cc3)ncc2F)CC1)C(F)(F)F` [Example 99, 2,2,2-trifluoro-N-((1R,4R)-4-(((5-fluoro-2-((4-morpholino-phenyl)amino)pyrimidin-4-yl)oxy)methyl)cyclohexyl) acetamide], the IC50 was below 50 nM.

As to `CC(=O)N[C@H]1CC[C@@H](COc2nc(Nc3cn(C(C)(C)C#N)nc3C)ncc2F)C1` [Example 180, N-((1S,3R)-3-(((2-((1-(2-cyanopropan-2-yl)-3-methyl-1H-pyrazol-4-yl)amino)-5-fluoropyrimidin-4-yl)oxy)methyl)cyclo-pentyl)acetamide], the IC50 is below 50 nM.

As for `Cn1cc(Nc2ncc(F)c(OC[C@H]3CC[C@H](O)CC3)n2)cn1` [Example 216, (1R,4R)-4-(((5-fluoro-2-((1-methyl-1H-pyrazol-4-yl)amino)pyrimidin-4-yl)oxy)methyl)cyclohexan-1-ol], the IC50 is below 50 nM.

Take `CC(=O)N1CCC(COc2nc(Nc3ccc(N4CCOCC4)cc3)ncc2F)C(F)C1` (single isomer, unassigned) [Example 172, 1-(3-fluoro-4-(((5-fluoro-2-((4-morpholinophenyl)amino)pyrimidin-4-yl)oxy)methyl)piper-idin-1-yl)ethan-1-one]: the IC50 lay in the range of 50 to 200 nM.

Take `O=C(C(F)F)N1CCC(COc2nc(Nc3cccc(N4CCOCC4)c3)ncc2Cl)CC1` [Example 110, 1-(4-(((5-chloro-2-((3-morpholino-phenyl)amino)pyrimidin-4-yl)oxy)methyl)piperidin-1-yl)-2,2-difluoro-ethan-1-one]: the IC50 is below 50 nM.

With `C[C@@H]1CN(c2ccc(Nc3ncc(Cl)c(OCC4CCC(O)CC4)n3)cc2)C[C@H](C)O1` (stereo partly drawn) [Example 120, 4-(((5-chloro-2-((4-((2S,6R)-2,6-dimethylmorpholino)phenyl)amino)pyrimidin-4-yl)oxy)methyl)cyclohexan-1-ol], the IC50 is below 50 nM.

For the molecule `Cc1nn(C2CC(C#N)C2)cc1Nc1ncc(Cl)c(OCC2CCC(O)CC2)n1` (centres unmarked) [Example 122, 3-(4-((5-chloro-4-((4-hydroxycyclohexyl)methoxy)pyrimidin-2-yl)amino)-3-methyl-1H-pyrazol-1-yl)cyclobutane-1-carbonitrile], the half-maximal inhibitory concentration (IC50) was below 50 nM.

As for `O[C@H]1CC[C@H](COc2nc(Nc3ccc(N4CCOCC4)cc3)nc(Cl)c2F)CC1` [Example 246, (1R,4R)-4-(((6-chloro-5-fluoro-2-((4-morpholinophenyl)amino)pyrimidin-4-yl)oxy)methyl)cyclohexan-1-ol], the IC50 was above 400 nM.

Broadly, the IC50 is the concentration that inhibits the measured activity by half.
